Legend:
BMDCs = experiment: DC survival by annexin V and propidium iodide flow cytometry; assay type: cell-based, C57BL/6 mice; conditions: CD11c purified BMDCs
Protocol: Primary bone marrow-derived dendritic cells (BMDCs) were prepared from wild type mice in the following manner: Bone marrow cells were flushed from the femurs and tibias of C57BL/6 mice and cultured for 6 days in RPMI media supplemented with 10% FBS, 10 ng/mL IL-4 and 10 ng/mL GMCSF along with antibiotics. On day 6, dendritic cells (DCs) were either purified by magnetic bead assisted cell sorting (MACS; Miltenyi Biotec, Auburn, Calif.) prior to adenoviral transduction, or used as unpurified bulk DCs that were then transduced with adenovirus.
BMDCs were prepared as described above and purified by CD11c (a marker for DC) MACS. Purified DCs were transduced with either Ad5-SHP1-shRNA or Ad5-scrambled-shRNA or left untreated and the virus was washed away following a two hour exposure. Cell survival was determined at 24 hours, 48 hours and 72 hours after infection by annexin V and propidium iodide (PI) staining and analyzed by flow cytometry. Annexin V binds to phosphatidylserine and is an early marker of apoptosis. PI is a DNA intercalating dye that can only enter cells when their membrane is integrity is disrupted and is a marker of cells late in the apoptotic process. Viral infection of DCs causes cells to undergo apoptosis where approximately 50% were dead or dying within the first 24 hours and 85% were dead or dying by 72 hours post-infection (FIG. 8 Ad5-scrambled-shRNA). […]

D2SC/1 cells = experiment: Cell death of D2SC/1 cells after adenoviral infection; assay type: cell-based, murine; conditions: D2SC/1 cells, 40,000 viral particles/cell
endogenous SHP-1 protein = experiment: Knock-down of endogenous SHP-1 protein in D2SC/1 cells, western blot with densitometry; assay type: cell-based, murine; conditions: D2SC/1 cells, 40,000 viral particles/cell
Protocol: The high titer adenoviral preparation of SHP-1 specific Ad-shRNA#1149 (referred to from this point on as Ad5-SHP-1-shRNA), produced in the Viral Vector Core Laboratory at Baylor College of Medicine, was tested for its ability to knock-down endogenous SHP-1 protein in D2SC/1 cells, a murine dendritic-like cell line. […] A titration of Ad5-SHP-1 shRNA viral particles was performed and SHP-1 protein expression was determined by western blot (FIG. 3). […] This dose was chosen for subsequent studies using mouse bone marrow derived dendritic cells (BMDCs).
FIG. 3 describes the knock-down of endogenous SHP-1 using high titer Ad5-SHP-1 shRNA. SHP-1 protein expression was measured in D2SC/1 cells following infection with Ad5-SHP-1 at varying doses as shown. Protein levels were analyzed by western blot with a SHP-1 specific antibody. As controls, SHP-1 expression is shown for uninfected cells and those infected with the Ad5-scrambled shRNA. The blot was also probed with a calnexin specific antibody as a loading control. Densitometry analysis of the western is shown below as a percentage of SHP-1 expression level relative to cells infected with Ad5-scrambled shRNA.

total splenocytes = experiment: T cell subsets in total splenocytes 7 days after DC vaccination, flow cytometry; assay type: in vivo, C57BL/6 mice; conditions: by viral treatment, peptides pooled
Protocol: To determine the effect of SHP-1 inhibition on the initiation of T cell responses, BMDCs were cultured and CD11c^+ MACS purified as described above. […] Following peptide loading DCs were left untreated or transduced with one of 3 different adenoviral vectors: 1) Ad5-SHP-1-shRNA; 2) Ad5-scrambled-shRNA; or 3) Ad5-CMV-empty, an adenovirus carrying a CMV promoter expression vector but no insert. […] Using all combinations of peptide and virus treatment yielded 9 experimental vaccines and one no vaccine control. Vaccines (2×10^6 DCs) were injected i.p. into wt C57BL/6 mice. Seven days following vaccination mice were sacrificed and total splenocytes were analyzed by multi-color flow cytometry for the expression of several T cell subsets. CD3^+ CD8^+IFNγ^+ cells were characterized as CTL effectors, CD3^+ CD4^+IFNγ^+ cells were characterized as Th1 helper T cells, and CD4^+ FOXP3^+ cells were characterized as Treg cells. Flow cytometry data were analyzed by one-way analysis of variance (ANOVA) and Tukey-Kramer HSD multiple comparisons test for percentage of cells falling within each population following treatment. Cells were stained with anti-CD3, anti-CD8 and anti IFNγ to differentiate CD8^+ effectors and CD4^+ Th1 T cell skewing or anti-CD4 and anti-FOXP3 to determine Tregs. To determine if there was a peptide specific effects between the 3 different tumor antigens, viral treatments were pooled for each peptide exposure. Data represent the averages 6 mice per peptide treatment group and 2 mice in the no treatment control group. No significant differences were seen between peptides in the induction of Tregs or CD8^+ effector cells.
(§1) Following peptide loading DCs were left untreated or transduced with one of 3 different adenoviral vectors: 1) Ad5-SHP-1-shRNA; 2) Ad5-scrambled-shRNA; or 3) Ad5-CMV-empty, an adenovirus carrying a CMV promoter expression vector but no insert. Vaccines were injected i.p. into wt C57BL/6 mice and T cell skewing analyzed 7 days later by flow cytometry from total splenocytes. Cells were stained with anti-CD3, anti-CD8 and anti IFNγ for effector and Th1 cells or anti-CD4 and anti-FOXP3 for Tregs. For the peptide specific analysis viral treatments were pooled for each peptide exposure. Data represent the averages 6 mice per peptide treatment and two mice in the no treatment control group. The green diamonds represent the mean and 95% confidence interval for each group from the ANOVA. The black line is the mean of means for the study and red asterisk (*) indicates significant differences (p<0.05 by Tukey-Kramer HSD multiple comparisons test).
as §1, with “the SHP-1” for “the peptide”, “each viral treatment.” for “each peptide exposure.”, “and 2” for “and two”, “ANOVA. […]” for “ANOVA. The black line is the mean of means for the study and red asterisk (*) indicates significant differences (p<0.05 by Tukey-Kramer HSD multiple comparisons test).”

[1] = 2×10^6 DCs i.p., day 7, vs no vaccine control

CACCGGAGCATGACACAGCAGAATACGAATATTCTGCTGTGTCATGCTCC (chemistry not given here) [Ad5-SHP-1-shRNA]
cells dead or dying (BMDCs; by 72 hours post-infection): 55%
cells dead or dying (BMDCs; within the first 24 hours post-infection): 35%
cell death (D2SC/1 cells): minimal cell death
decrease in endogenous SHP-1 protein (endogenous SHP-1 protein): 95%
proportion of CD4+ Th1 skewed T cells (CD3+CD4+IFNγ+) (total splenocytes; [1]): significantly higher proportion
proportion of CD8+ effector cells (CD3+CD8+IFNγ+) (total splenocytes; [1]): significantly higher proportion
percentage of Tregs (CD4+FOXP3+) (total splenocytes; day 7, vs empty viral control): significantly decreased the percentage of Tregs
